What all share (assay type): physicochemical
The nature of data set [1]: Shake-flask solubility in organic solvent/water mixtures. As to conditions: for Concentration of Sorafenib Found: 24 hours, 20-25° C. The protocol:
This method was conducted in acidic media. Development of a discriminating dissolution method at neutral pH (6.8 to 7.4) was pursued, as relevant for potential intra-tumoral delivery of the drug. The addition of organic solvents was used to increase the solubility of the compounds at neutral pH.
Solubility was determined by using a shake-flask method. The drug was added in excess to each solution prepared in duplicate. The vials were placed on a mechanical shaker for 24 hours at 20-25° C. After shaking, solution was removed and filtered through a 0.2 μm PTFE syringe filter and analyzed by UV/Visible spectrophotometry.

Data set [2] is described as follows: Particle size distribution (PSD) by laser diffraction, Malvern Mastersizer 3000. The protocol: (§1) Three precipitation runs (approximately 600-700 mg) were conducted on the RC612B precipitation unit, according to the examples provided on the preceding pages. Solvent was the single variable modified between each group of three precipitations. The precipitates were analyzed by laser diffraction to determine PSD, BET sorptometry to determine SSA, SEM to determine habit and support PSD and SSA data, and PXRD to determine crystalline/amorphous form.
PSD analyses were conducted on a Malvern Mastersizer™ 3000 using the Aero S dispersion unit according to the manufacturer instructions.

A short description of data set [3]: Specific surface area (SSA) by BET sorptometry. The procedure: As used herein, the “specific surface area” is the total surface area of the sorafenib particle per unit of sorafenib mass as measured by the Brunauer—Emmett—Teller (“BET”) isotherm (i.e.: the BET SSA). As will be understood by those of skill in the art, the SSA is determined on a per gram basis and takes into account both agglomerated and non-agglomerated sorafenib particles in the composition. The BET specific surface area test procedure is a compendial method included in both the United States Pharmaceopeia and the European Pharmaceopeia.
as §1
SSA determination analyses were conducted on a Quantachrome NOVAtouch™ LX^2 BET Sorptometer or a Porous Materials, Inc., Automated BET Sorptometer BET-202A according to the manufacturer instructions.

In the case of `CNC(=O)c1cc(Oc2ccc(NC(=O)Nc3ccc(Cl)c(C(F)(F)F)c3)cc2)ccn1` [Sorafenib, 4-(4-((((4-Chloro-3-(trifluoromethyl)phenyl)amino)carbonyl)amino)phenoxy)-N-methyl-2-pyridinecarboxamide], the “Concentration of Sorafenib Found” value in data set [1] (Ethanol, water to organic solvent ratio 25/75) is 553 µg/mL; in data set [1] (Ethanol, water to organic solvent ratio 50/50) it was 325 µg/mL; in data set [1] (Methanol, water to organic solvent ratio 25/75) it was 503 µg/mL; in data set [1] (Methanol, water to organic solvent ratio 50/50), 41.4 µg/mL; in data set [1] (Methanol, water to organic solvent ratio 75/25) it was 2.45 µg/mL. Moreover, the “Solubility versus organic solvent concentration” value in data set [1] (methanol/water and ethanol/water, both solvents) is listed as “concentration dependent solubility”. Besides, the “PSD: Volume Dv-10” value in data set [2] amounted to 12.3 μm. Besides, the SSA in data set [3] (listed as Raw) is on record as 1.02 m^2/g; in data set [3] (listed as unprocessed material), 0.88 m^2/g.

(Values after patent publication US20230364021A1 (CRITITECH, INC., priority 2020, published 2023).)
